We go through three compounds from ChEMBL document CHEMBL1152560, “Substituted 2-arylbenzothiazoles as kinase inhibitors: hit-to-lead optimization” (Bioorg Med Chem, 2009).

Structures are written as SMILES.

Assay [1] deals with Cyclin-dependent kinase 5/CDK5 activator 1 (Homo sapiens) (UniProt Q00535+Q15078). The assay can be described thus: Residual activity of CDK5/p35NCK at 1 uM by microplate scintillation counting. The class given is protein-complex assay.
The target of assay [2] is Dual specificity tyrosine-phosphorylation-regulated kinase 1A (Homo sapiens) (UniProt Q13627). Description: Residual activity of DYRK1A at 1 uM by microplate scintillation counting.
The target in assay [3] is Death-associated protein kinase 3 (Homo sapiens) (UniProt O43293). The assay can be described thus: Residual activity of DAPK3 at 0.1 uM by microplate scintillation counting.
Sequence of Death-associated protein kinase 3 (Homo sapiens) (O43293 whole entry, looked up, the tested form may be a part): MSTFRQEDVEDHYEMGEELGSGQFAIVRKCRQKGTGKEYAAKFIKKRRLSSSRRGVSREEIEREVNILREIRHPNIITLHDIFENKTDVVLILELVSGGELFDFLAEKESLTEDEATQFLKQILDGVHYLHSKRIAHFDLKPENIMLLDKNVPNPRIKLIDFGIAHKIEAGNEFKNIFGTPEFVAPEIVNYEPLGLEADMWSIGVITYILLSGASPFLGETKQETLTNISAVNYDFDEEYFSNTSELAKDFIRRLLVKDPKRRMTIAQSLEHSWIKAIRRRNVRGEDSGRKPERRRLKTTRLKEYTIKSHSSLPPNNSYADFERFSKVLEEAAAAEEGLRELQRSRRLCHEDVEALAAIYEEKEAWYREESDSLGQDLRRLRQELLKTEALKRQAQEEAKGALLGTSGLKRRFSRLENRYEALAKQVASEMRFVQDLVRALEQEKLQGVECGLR
Assay [4] deals with LIM domain kinase 1 (Homo sapiens) (UniProt P53667). The assay can be described thus: Residual activity of LIMK1 at 0.1 uM by microplate scintillation counting.
Sequence of LIM domain kinase 1 (Homo sapiens) (P53667 whole entry, looked up, the tested form may be a part): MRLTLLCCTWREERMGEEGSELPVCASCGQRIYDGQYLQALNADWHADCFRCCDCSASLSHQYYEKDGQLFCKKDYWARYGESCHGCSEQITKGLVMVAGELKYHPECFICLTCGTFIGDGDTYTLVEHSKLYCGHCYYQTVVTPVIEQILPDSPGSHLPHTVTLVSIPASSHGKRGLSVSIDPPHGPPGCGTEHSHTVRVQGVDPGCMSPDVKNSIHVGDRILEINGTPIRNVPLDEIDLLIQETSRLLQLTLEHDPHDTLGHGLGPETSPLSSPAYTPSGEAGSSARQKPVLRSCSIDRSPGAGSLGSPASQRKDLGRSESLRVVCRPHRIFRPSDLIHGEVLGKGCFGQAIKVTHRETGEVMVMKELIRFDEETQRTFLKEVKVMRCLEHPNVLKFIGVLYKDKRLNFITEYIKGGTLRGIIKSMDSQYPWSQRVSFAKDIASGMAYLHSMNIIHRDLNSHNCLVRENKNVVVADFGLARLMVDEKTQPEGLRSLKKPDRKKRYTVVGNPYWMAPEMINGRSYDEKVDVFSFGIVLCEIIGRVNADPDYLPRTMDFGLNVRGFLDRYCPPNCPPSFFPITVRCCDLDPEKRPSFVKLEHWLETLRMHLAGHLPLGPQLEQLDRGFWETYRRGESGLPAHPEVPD
Assay [5] concerns T1, Dual specificity mitogen-activated protein kinase kinase 6 (Homo sapiens), P52564 [S207D,T211D].
T1 sequence (whole entry): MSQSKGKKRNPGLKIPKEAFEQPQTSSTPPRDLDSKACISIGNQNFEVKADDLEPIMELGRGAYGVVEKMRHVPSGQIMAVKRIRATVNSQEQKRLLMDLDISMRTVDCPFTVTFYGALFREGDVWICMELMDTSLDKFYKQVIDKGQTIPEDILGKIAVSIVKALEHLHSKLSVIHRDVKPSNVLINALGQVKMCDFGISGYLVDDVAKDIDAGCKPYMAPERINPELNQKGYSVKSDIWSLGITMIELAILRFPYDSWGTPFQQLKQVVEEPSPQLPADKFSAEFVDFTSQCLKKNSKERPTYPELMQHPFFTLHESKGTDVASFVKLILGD
The assay can be described thus: Residual activity of MKK6 S207D/T211D mutant at 0.1 uM by microplate scintillation counting.

The target of assay [6] is T2, Tyrosine-protein kinase Tec (Homo sapiens) (UniProt P42680).
T2 sequence (whole entry): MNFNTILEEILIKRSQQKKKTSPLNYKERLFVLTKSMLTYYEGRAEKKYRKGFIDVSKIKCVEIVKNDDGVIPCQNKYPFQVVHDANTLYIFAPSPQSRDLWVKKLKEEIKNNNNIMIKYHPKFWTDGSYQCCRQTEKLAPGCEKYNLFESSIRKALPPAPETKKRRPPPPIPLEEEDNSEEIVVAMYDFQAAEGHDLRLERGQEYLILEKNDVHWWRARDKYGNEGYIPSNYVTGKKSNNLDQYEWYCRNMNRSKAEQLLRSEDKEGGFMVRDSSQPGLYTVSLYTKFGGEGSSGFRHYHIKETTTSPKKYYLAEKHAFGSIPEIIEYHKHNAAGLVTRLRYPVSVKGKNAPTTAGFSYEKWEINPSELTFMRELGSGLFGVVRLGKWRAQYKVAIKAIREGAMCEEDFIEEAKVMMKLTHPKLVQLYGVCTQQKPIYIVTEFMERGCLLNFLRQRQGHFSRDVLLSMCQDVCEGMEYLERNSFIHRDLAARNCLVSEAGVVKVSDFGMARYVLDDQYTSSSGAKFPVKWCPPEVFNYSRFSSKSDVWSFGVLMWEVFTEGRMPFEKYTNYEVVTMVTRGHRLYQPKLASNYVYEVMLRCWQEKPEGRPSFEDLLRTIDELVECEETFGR
The assay can be described thus: Residual activity of TEC at 1 uM by microplate scintillation counting.

In assay [7] the test system is Mast/stem cell growth factor receptor Kit (Homo sapiens), P10721 [T670I]. The assay can be described thus: Residual activity of KIT T670I mutant at 10 uM by microplate scintillation counting.
Sequence of Mast/stem cell growth factor receptor Kit (Homo sapiens), P10721 [T670I] (P10721 whole entry T670I): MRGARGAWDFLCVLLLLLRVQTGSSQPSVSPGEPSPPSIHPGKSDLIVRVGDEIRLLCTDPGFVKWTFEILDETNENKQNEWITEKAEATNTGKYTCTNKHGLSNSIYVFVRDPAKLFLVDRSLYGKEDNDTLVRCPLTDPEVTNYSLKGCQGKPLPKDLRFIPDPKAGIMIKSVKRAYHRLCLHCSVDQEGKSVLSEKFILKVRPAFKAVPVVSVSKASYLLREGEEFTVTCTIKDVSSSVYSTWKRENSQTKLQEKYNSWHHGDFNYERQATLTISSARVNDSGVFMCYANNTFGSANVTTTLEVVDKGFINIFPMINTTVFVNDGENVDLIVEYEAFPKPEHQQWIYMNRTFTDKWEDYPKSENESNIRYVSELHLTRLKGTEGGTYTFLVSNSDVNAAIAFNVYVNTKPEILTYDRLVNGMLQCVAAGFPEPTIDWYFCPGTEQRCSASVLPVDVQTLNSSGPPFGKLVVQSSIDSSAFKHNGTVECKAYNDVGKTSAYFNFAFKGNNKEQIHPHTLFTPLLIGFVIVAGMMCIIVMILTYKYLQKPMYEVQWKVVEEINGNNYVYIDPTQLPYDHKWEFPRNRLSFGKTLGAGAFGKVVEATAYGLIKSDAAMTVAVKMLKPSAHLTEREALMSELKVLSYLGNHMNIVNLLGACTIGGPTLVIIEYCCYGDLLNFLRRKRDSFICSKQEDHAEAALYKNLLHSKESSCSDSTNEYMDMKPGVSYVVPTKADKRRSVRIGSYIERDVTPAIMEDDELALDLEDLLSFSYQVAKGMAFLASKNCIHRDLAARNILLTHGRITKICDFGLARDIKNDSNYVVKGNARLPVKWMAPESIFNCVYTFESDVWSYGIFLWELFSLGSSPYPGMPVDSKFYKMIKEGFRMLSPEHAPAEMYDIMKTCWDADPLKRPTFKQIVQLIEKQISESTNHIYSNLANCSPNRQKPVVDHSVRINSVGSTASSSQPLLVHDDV
Assay [8] addresses T3, Serine/threonine-protein kinase VRK1 (Homo sapiens) (UniProt Q99986).
T3 sequence (whole entry): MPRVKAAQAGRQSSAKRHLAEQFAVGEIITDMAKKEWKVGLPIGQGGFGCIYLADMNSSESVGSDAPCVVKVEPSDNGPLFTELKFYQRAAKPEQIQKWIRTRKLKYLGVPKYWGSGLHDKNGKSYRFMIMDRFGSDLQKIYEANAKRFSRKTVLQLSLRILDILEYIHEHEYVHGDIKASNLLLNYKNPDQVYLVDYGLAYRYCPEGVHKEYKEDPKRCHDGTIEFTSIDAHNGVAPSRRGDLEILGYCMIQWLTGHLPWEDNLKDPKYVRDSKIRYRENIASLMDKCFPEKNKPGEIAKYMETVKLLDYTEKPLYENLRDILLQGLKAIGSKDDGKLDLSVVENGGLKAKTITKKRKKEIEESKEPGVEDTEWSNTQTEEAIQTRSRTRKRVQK
Description: Residual activity of VRK1 at 0.1 uM by microplate scintillation counting.

Assay [9] has as its target Calcium/calmodulin-dependent protein kinase kinase 2 (Homo sapiens) (UniProt Q96RR4). The assay can be described thus: Residual activity of CAMKK2 at 10 uM by microplate scintillation counting.
Assay [10] has as its target Mitogen-activated protein kinase kinase kinase 14 (Homo sapiens) (UniProt Q99558). Description: Residual activity of NIK at 0.1 uM by microplate scintillation counting.
Assay [11] concerns the target Serine/threonine-protein kinase PAK 1 (Homo sapiens) (UniProt Q13153). Description: Residual activity of PAK1 at 0.1 uM by microplate scintillation counting.
Assay [12] has as its target Serine/threonine-protein kinase PAK 4 (Homo sapiens) (UniProt O96013). The assay can be described thus: Residual activity of PAK4 at 0.1 uM by microplate scintillation counting.
The target in assay [13] is T4, cGMP-dependent protein kinase 2 (Homo sapiens) (UniProt Q13237).
T4 sequence (whole entry): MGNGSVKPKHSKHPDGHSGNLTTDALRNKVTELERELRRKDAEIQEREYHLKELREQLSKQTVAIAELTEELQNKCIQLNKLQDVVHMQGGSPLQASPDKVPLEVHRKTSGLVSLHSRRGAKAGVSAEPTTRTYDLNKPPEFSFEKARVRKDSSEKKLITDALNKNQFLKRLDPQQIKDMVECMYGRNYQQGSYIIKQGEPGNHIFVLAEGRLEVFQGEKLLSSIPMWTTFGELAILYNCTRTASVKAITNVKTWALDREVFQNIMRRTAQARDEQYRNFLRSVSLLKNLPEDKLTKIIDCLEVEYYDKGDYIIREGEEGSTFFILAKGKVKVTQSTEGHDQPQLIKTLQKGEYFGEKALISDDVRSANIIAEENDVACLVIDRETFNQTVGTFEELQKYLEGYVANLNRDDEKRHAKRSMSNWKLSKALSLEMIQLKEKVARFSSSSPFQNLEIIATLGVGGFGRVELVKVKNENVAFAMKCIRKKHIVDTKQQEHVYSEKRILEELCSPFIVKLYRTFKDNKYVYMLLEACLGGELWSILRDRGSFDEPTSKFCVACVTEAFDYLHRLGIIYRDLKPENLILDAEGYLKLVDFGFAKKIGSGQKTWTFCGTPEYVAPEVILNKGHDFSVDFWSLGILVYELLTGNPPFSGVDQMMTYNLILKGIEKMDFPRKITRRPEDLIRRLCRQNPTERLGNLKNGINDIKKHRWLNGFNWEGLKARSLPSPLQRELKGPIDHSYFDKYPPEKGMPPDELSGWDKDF
Description: Residual activity of PRKG2 at 10 uM by microplate scintillation counting.

Assay [14] has as its target 3-phosphoinositide-dependent protein kinase 1 (Homo sapiens) (UniProt O15530). The assay can be described thus: Residual activity of PDK1 at 1 uM by microplate scintillation counting.

Sequence of Serine/threonine-protein kinase PAK 4 (Homo sapiens) (O96013 whole entry, looked up): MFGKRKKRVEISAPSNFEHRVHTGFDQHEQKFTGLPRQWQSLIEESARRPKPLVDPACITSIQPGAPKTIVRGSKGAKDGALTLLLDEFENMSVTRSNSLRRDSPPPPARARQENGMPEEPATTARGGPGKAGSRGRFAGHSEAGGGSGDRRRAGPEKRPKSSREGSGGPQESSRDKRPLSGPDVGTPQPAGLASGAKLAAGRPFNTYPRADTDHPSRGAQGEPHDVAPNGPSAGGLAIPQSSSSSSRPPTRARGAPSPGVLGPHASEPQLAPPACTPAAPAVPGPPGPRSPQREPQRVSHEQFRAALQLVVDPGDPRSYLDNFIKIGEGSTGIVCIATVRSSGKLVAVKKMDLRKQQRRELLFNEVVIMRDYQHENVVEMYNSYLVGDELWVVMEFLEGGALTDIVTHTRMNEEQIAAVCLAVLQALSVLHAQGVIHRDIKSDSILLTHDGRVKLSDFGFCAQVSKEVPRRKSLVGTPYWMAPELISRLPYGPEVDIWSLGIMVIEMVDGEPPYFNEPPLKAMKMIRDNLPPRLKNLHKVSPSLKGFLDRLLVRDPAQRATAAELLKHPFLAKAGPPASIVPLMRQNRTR
Sequence of Mitogen-activated protein kinase kinase kinase 14 (Homo sapiens) (Q99558 whole entry, looked up): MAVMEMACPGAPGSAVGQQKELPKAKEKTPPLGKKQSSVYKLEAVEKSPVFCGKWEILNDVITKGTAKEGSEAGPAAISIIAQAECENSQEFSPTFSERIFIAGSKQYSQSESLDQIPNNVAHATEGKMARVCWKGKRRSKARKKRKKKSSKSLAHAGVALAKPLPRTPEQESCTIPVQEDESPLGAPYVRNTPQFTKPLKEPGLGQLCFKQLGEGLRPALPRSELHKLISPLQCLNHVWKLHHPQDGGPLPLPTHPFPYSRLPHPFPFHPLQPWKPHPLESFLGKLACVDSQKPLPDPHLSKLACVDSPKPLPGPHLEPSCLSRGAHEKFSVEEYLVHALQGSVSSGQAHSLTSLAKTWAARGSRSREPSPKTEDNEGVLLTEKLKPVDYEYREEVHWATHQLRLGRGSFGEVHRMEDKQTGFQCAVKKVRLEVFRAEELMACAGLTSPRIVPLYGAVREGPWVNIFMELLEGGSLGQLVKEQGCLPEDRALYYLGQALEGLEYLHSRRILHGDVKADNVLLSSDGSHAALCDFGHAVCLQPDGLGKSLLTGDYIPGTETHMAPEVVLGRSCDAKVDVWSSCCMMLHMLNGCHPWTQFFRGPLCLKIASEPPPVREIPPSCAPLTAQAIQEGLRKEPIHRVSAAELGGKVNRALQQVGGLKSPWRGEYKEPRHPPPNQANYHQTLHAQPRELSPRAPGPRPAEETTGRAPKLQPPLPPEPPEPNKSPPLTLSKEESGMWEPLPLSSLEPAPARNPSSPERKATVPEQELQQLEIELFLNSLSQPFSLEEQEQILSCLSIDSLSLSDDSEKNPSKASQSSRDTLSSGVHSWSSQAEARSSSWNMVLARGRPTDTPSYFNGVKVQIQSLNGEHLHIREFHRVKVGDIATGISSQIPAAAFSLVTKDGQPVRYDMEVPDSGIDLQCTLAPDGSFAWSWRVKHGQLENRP
Sequence of 3-phosphoinositide-dependent protein kinase 1 (Homo sapiens) (O15530 whole entry, looked up): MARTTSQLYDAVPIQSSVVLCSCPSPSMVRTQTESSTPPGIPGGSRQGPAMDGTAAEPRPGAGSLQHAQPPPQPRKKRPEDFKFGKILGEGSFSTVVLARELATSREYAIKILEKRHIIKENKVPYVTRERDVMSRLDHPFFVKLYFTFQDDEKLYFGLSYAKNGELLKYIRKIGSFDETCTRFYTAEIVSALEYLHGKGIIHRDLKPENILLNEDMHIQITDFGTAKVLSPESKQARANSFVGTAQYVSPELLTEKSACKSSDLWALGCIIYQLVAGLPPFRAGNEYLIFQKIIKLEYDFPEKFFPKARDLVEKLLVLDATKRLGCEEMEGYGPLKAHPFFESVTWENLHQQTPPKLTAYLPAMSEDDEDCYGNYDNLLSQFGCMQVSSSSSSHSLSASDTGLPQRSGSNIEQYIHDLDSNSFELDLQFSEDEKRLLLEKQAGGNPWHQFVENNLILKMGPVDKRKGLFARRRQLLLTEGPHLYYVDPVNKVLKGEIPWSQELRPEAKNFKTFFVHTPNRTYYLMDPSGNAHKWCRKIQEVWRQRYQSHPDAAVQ
Sequence of Cyclin-dependent kinase 5/CDK5 activator 1 (Homo sapiens) (Q00535 whole entry): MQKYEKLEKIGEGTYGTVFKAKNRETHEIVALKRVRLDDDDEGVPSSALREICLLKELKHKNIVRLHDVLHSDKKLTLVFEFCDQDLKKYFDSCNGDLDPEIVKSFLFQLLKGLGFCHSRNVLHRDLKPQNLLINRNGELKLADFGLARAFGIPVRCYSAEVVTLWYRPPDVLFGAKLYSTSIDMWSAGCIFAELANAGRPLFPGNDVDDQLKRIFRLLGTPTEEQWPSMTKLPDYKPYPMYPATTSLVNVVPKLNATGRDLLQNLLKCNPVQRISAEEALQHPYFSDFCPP
Sequence of Cyclin-dependent kinase 5/CDK5 activator 1 (Homo sapiens) (Q15078 99-307 partner limits assumed): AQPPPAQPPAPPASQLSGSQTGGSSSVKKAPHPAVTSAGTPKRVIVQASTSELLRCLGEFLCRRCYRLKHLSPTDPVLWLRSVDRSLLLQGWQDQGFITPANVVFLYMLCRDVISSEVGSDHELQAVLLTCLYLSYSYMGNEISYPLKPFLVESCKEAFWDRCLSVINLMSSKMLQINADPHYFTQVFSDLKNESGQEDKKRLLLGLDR

In the case of `COc1cc2c(Oc3ccc(-c4nc5ccccc5s4)cc3F)ncnc2cc1OCCCN1CCN(C)CC1`, the residual activity came to 86% in assay [1]; 91% in assay [2]; 74% in assay [3]; 77% in assay [4]; 95% in [5]; 90% in assay [6]. Moreover, the residual activity in assay [7] amounted to 18%; in [8] it was 89%; in assay [9], 112%; in [10] it was 86%; in assay [11], 93%; in assay [12] it was 99%. Moreover, the residual activity in [13] was determined as 96%; in [14], 108%.
`COc1cc2c(Oc3ccc(-c4nc5ccccc5s4)cc3)ncnc2cc1OCCCN1CCN(C)CC1`: the residual activity was found to be 85% in assay [1]; 93% in assay [2]; 75% in [3]; 68% in [4]; 80% in assay [5]; 96% in assay [6]. Further, the residual activity in [7] was determined as 40%; in assay [8], 97%; in assay [9] it was 109%; in assay [10], 86%; in assay [11], 97%; in [12], 102%. Further, the figures for the residual activity in [13] and in assay [14] were 119% and 101%, respectively.
On to `COc1cc2c(Oc3ccc(-c4nc5ccccc5s4)cc3)ncnc2cc1OCCCN1CCCC1`, for which the residual activity in [1] is 97%; in [2] it was 92%; in [3], 89%; in assay [4] it was 76%; in [5], 72%; in assay [6] it was 93%. In addition, the residual activity came out at 52% in [7]; 93% in [8]; 97% in assay [9]; 87% in assay [10]; 99% in assay [11]; 96% in assay [12]. Also, the residual activity in [13] came to 92%; in [14] it was 102%.
